# Patent US7097996B2, “Methods of screening test compounds using GADD34L, an eIF2α-specific phosphatase subunit” (New York University, priority 2002, dated 2006)
# Like-named read-outs stand apart in the source and are kept apart here. d = 2'-deoxy (DNA); r = 2'-OH (RNA)
# Key:
# [1] = system: HT22 cells; assay: HT22 cell survival (MTT) after toxic glutamate exposure; format: cell-based; details: HT22 cells preconditioned (70 μM 22P19 for 24 or 48 h, or siRNA transfection), then 5 mM or 10 mM glutamate for 18 hours
# Experimental: FIG. 6: Inhibition of endogenous GADD34L protects cells against oxidative toxicity. The bar graphs show percent survival of HT22 cells following exposure to toxic amounts of glutamate. HT22 cells were treated with 70 μM 22P19 for 24 or 48 h (top panel), or left untransfected (NTx), mock transfected, transfected with GADD34L siRNA, or transfected with control or CD2 siRNA (bottom panel), and then exposed to the indicated concentrations of glutamate for 18 hours.
# In order to determine whether this preconditioning is protective against subsequent cell stress, cell survival rates of HT22 cells following toxic glutamate exposure were measured, where those HT22 cells had been preconditioned by 22P19- or RNAi-mediated inhibition of GADD34L (see FIG. 6).
# For this assay, HT22 cells were either treated with 70 μM 22P19 for 24 or 48 h, or transfected with GADD34L siRNA or control CD2 siRNA, and then exposed to 0 mM, 5 mM, or 10 mM glutamate for 18 hours.
# [2] = system: CHOP::GFP reporter; assay: CHOP::GFP reporter expression by FACS in CHOP::GFP CHO cells; format: cell-based, Chinese Hamster
# [3] = system: CHOP protein and phosphorylated eIF2α in CHO cells; format: cell-based, Chinese Hamster
# [4] = parental CHO cells, 1.75 μg/mL tunicamycin or 50 μM arsenite
substance,measurement,setting,value
"GADD34L siRNA: complementary double stranded RNA oligonucleotides (SEQ ID NO: 9 and 10) targeting GADD34L mRNA, purchased from Dharmacon (chain 1 GGGAUGGAUGCAGGUUCCATT; chain 2 UGGAACCUGCAUCCAUCCCTT; sugars from the 5' end r19 d2, backbone not given here)",cell survival following glutamate treatment,[1],substantially improved cell survival
same,CHOP::GFP expression in cells not subject to stress,"[2]; CHO CHOP::GFP cells harvested 16, 24 or 44 hours after transfection",activates CHOP::GFP expression
tunicamycin,CHOP protein level,[3]; [4],strong induction of CHOP protein
same,phosphorylated eIF2α level,[3]; [4],increase in phosphorylated eIF2α levels
same,CHOP::GFP reporter expression,"[2]; parental CHO cells, 8 hours, 1.75 μg/mL tunicamycin or 50 μM arsenite",substantially activated
arsenite,CHOP protein level,[3],strong induction of CHOP protein
same,phosphorylated eIF2α level,[3],increase in phosphorylated eIF2α levels
same,CHOP::GFP reporter expression,[2],substantially activated
